Read-outs that look alike come from different tables or passages of the source.
How the values were obtained:
Format in all cases: in vivo
[1] = tested on: Italian ryegrass (Lolium multiflorum); assay: Test B pre-/postemergence plant response
In short: (§1)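 Visual injury rating, 0 (no effect) to 100 (complete control), vs untreated controls after ~10 d greenhouse. Pre: directed soil spray after planting in loam/sand. Post: plants 2–10 cm, 1–2 leaf stage. Compound in non-phytotoxic solvent plus surfactant.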

kochia (Kochia scoparia) = assay: Test B pre-/postemergence plant response
In short: as §1

[2] = tested on: ragweed (common ragweed, Ambrosia elatior); assay: Test B pre-/postemergence plant response
In short: as §1

[3] = tested on: small-flower umbrella sedge (Cyperus difformis); assay: Test C flooded paddy test plant response; conditions: Cyperus difformis; Flood, 250 g ai/ha; scale of 0 to 100 where 0 is no effect and 100 is complete control; 13 to 15 days; read-out: Sedge, Umbrella plant response rating
In short: (§2)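 Scale 0 (no effect) to 100 (complete control), assigned visually versus controls after 13–15 d greenhouse. Application: directly to paddy water, 3 cm flood depth kept constant, 2-leaf stage.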

[4] = tested on: barnyardgrass (Echinochloa crus-galli); assay: Test C flooded paddy test plant response; conditions: Echinochloa crus-galli; Flood, 250 g ai/ha; scale of 0 to 100 where 0 is no effect and 100 is complete control; 13 to 15 days; read-out: Barnyardgrass plant response rating
In short: as §2

rice (Oryza sativa) = assay: Test C flooded paddy test plant response; conditions: Oryza sativa; Flood, 250 g ai/ha; scale of 0 to 100 where 0 is no effect and 100 is complete control; 13 to 15 days; read-out: Rice plant response rating
In short: as §2

[5] = tested on: ducksalad (Heteranthera limosa); assay: Test C flooded paddy test plant response; conditions: Heteranthera limosa; Flood, 250 g ai/ha; scale of 0 to 100 where 0 is no effect and 100 is complete control; 13 to 15 days; read-out: Ducksalad plant response rating
In short: as §2

[6] = tested on: lambsquarters (Chenopodium album); assay: Test D pre-/postemergence plant response; conditions: Chenopodium album; for pest or weed control at 31 g/ha: 31 g ai/ha; for pest or weed control at 62 g/ha: 62 g ai/ha; for pest or weed control at 125 g/ha: 125 g ai/ha
In short: (§3)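 Visual injury scoring (0–100) at 13 to 15 days in greenhouse. Preemergence sprays on seeded loam/sand; postemergence sprays on 1–4 leaf plants.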

[7] = tested on: Italian ryegrass (Lolium multiflorum); assay: Test D pre-/postemergence plant response; conditions: Lolium multiflorum; for pest or weed control at 31 g/ha: 31 g ai/ha; for pest or weed control at 62 g/ha: 62 g ai/ha; for pest or weed control at 125 g/ha: 125 g ai/ha
In short: as §3

[8] = tested on: winter wheat (Triticum aestivum); assay: Test D pre-/postemergence plant response; conditions: Triticum aestivum; for plant injury at 31 g/ha: 31 g ai/ha; for plant injury at 62 g/ha: 62 g ai/ha; for plant injury at 125 g/ha: 125 g ai/ha
In short: as §3

[9] = tested on: oilseed rape (Brassica napus); assay: Test D pre-/postemergence plant response; conditions: Brassica napus; for plant injury at 31 g/ha: 31 g ai/ha; for plant injury at 62 g/ha: 62 g ai/ha; for plant injury at 125 g/ha: 125 g ai/ha
In short: as §3

corn (Zea mays) = assay: Test D pre-/postemergence plant response; conditions: Zea mays; for Corn plant response rating (crop injury, 0 = no effect, 100 = complete kill) at 62 g/ha: 62 g ai/ha
In short: as §3

[10] = tested on: velvetleaf (Abutilon theophrasti); assay: Test D pre-/postemergence plant response; conditions: Abutilon theophrasti; for pest or weed control at 31 g/ha: 31 g ai/ha; for pest or weed control at 62 g/ha: 62 g ai/ha; for pest or weed control at 125 g/ha: 125 g ai/ha
In short: as §3

[11] = tested on: galium (catchweed bedstraw, Galium aparine); assay: Test D pre-/postemergence plant response; conditions: Galium; for pest or weed control at 31 g/ha: 31 g ai/ha; for pest or weed control at 62 g/ha: 62 g ai/ha; for pest or weed control at 125 g/ha: 125 g ai/ha
In short: as §3

[12] = 125 g ai/ha, postemergence, 0 to 100 scale, 0 no effect, 100 complete control
[13] = Postemergence, 500 g ai/ha, 0 to 100 scale (0 no effect, 100 complete control)
[14] = Preemergence, 125 g ai/ha, 0 to 100 scale (0 no effect, 100 complete control)
[15] = Preemergence, 500 g ai/ha, 0 to 100 scale where 0 is no effect and 100 is complete control
[16] = post-emergence, Postemergence, scale 0 to 100, 0 no effect, 100 complete control, read-out: Plant response rating, Lambsquarters
[17] = pre-emergence, Preemergence, scale 0 to 100 (0 no effect, 100 complete control), read-out: Plant response rating, Lambsquarters
[18] = post-emergence, Postemergence, scale 0 to 100, 0 no effect, 100 complete control, read-out: Plant response rating, Ryegrass, Italian
[19] = pre-emergence, Preemergence, scale 0 to 100 (0 no effect, 100 complete control), read-out: Plant response rating, Ryegrass, Italian
[20] = post-emergence, Postemergence, scale 0 to 100, 0 no effect, 100 complete control, read-out: Plant response rating, Wheat
[21] = pre-emergence, Preemergence, scale 0 to 100 (0 no effect, 100 complete control), read-out: Plant response rating, Wheat
[22] = post-emergence, Postemergence, scale 0 to 100, 0 no effect, 100 complete control, read-out: Plant response rating, Oilseed Rape
[23] = pre-emergence, Preemergence, scale 0 to 100 (0 no effect, 100 complete control), read-out: Plant response rating, Oilseed Rape
[24] = post-emergence, Postemergence, scale 0 to 100, 0 no effect, 100 complete control, read-out: Plant response rating, Velvetleaf
[25] = pre-emergence, Preemergence, scale 0 to 100 (0 no effect, 100 complete control), read-out: Plant response rating, Velvetleaf
[26] = post-emergence, Postemergence, scale 0 to 100, 0 no effect, 100 complete control, read-out: Plant response rating, Galium
[27] = pre-emergence, Preemergence, scale 0 to 100 (0 no effect, 100 complete control), read-out: Plant response rating, Galium

Fc1cccc(Oc2ncc(Cl)cn2)c1-c1cc(C(F)(F)F)on1 [Compound 168, 5-chloro-2-[2-[5-(trifluoromethyl)-3-isoxazolyl]-3-fluorophenoxy]pyrimidine]
90%: pest or weed control at 250 g/ha [3] | pest or weed control at 250 g/ha [4] | pest or weed control at 250 g/ha [5] | pest or weed control at 125 g/ha [6, 16] | pest or weed control at 16 g/ha ([6]; pre-emergence, Preemergence, 16 g ai/ha, scale 0 to 100 (0 no effect, 100 complete control), read-out: Plant response rating, Lambsquarters) | pest or weed control at 125 g/ha [10, 24]
90: Plant response rating, Ryegrass, Italian [1, 12] | Plant response rating, Ryegrass, Italian [1, 13] | Plant response rating, Kochia (kochia (Kochia scoparia); [12]) | Plant response rating, Kochia (kochia (Kochia scoparia); [13]) | Plant response rating, Ragweed [2, 12] | Plant response rating, Ragweed [2, 13]
70: Ragweed plant response rating [2, 14]
35%: plant injury at 125 g/ha [8, 20]
0%: plant injury at 16 g/ha ([8]; pre-emergence, Preemergence, 16 g ai/ha, scale 0 to 100 (0 no effect, 100 complete control), read-out: Plant response rating, Wheat) | Corn plant response rating (crop injury, 0 = no effect, 100 = complete kill) at 16 g/ha (corn (Zea mays); pre-emergence, Preemergence, 16 g ai/ha, scale 0 to 100 (0 no effect, 100 complete control))
98%: pest or weed control at 125 g/ha ([6]; pre-emergence, Preemergence, read-out: Plant response rating (scale 0 to 100), Lambsquarters)
70%: pest or weed control at 16 g/ha ([7]; pre-emergence, Preemergence, 16 g ai/ha, scale 0 to 100 (0 no effect, 100 complete control), read-out: Plant response rating, Ryegrass, Italian)
40%: plant injury at 250 g/ha (rice (Oryza sativa)) | pest or weed control at 31 g/ha ([10]; post-emergence, Postemergence, scale 0 to 100 (0 no effect, 100 complete control), read-out: Velvetleaf plant response rating)
20%: Corn plant response rating (crop injury, 0 = no effect, 100 = complete kill) at 125 g/ha (corn (Zea mays); post-emergence, Postemergence, 125 g ai/ha, scale 0 to 100, 0 no effect, 100 complete control)
85%: pest or weed control at 31 g/ha ([6]; post-emergence, Postemergence, scale 0 to 100 (0 no effect, 100 complete control), read-out: Lambsquarters plant response rating) | pest or weed control at 62 g/ha [6, 16] | plant injury at 125 g/ha ([8]; pre-emergence, Preemergence, read-out: Plant response rating (scale 0 to 100), Wheat) | pest or weed control at 16 g/ha ([10]; pre-emergence, Preemergence, 16 g ai/ha, scale 0 to 100 (0 no effect, 100 complete control), read-out: Plant response rating, Velvetleaf)
95%: pest or weed control at 125 g/ha ([7]; pre-emergence, Preemergence, read-out: Plant response rating (scale 0 to 100), Ryegrass, Italian) | pest or weed control at 31 g/ha [7, 19] | pest or weed control at 62 g/ha [7, 19] | plant injury at 16 g/ha ([9]; pre-emergence, Preemergence, 16 g ai/ha, scale 0 to 100 (0 no effect, 100 complete control), read-out: Plant response rating, Oilseed Rape) | pest or weed control at 31 g/ha ([11]; post-emergence, Postemergence, scale 0 to 100 (0 no effect, 100 complete control), read-out: Galium plant response rating) | pest or weed control at 62 g/ha [11, 26]
30%: plant injury at 62 g/ha [8, 20]
25%: Corn plant response rating (crop injury, 0 = no effect, 100 = complete kill) at 62 g/ha (corn (Zea mays); pre-emergence, Preemergence, scale 0 to 100 (0 no effect, 100 complete control))
45%: plant injury at 62 g/ha [8, 21] | pest or weed control at 62 g/ha [10, 24]
100: Plant response rating, Ryegrass, Italian [1, 15] | Kochia plant response rating (kochia (Kochia scoparia); [14]) | Plant response rating, Kochia (kochia (Kochia scoparia); [15])
10%: plant injury at 31 g/ha ([8]; post-emergence, Postemergence, scale 0 to 100 (0 no effect, 100 complete control), read-out: Wheat plant response rating) | Corn plant response rating (crop injury, 0 = no effect, 100 = complete kill) at 62 g/ha (corn (Zea mays); post-emergence, Postemergence, scale 0 to 100, 0 no effect, 100 complete control)
15%: pest or weed control at 125 g/ha [7, 18] | Corn plant response rating (crop injury, 0 = no effect, 100 = complete kill) at 31 g/ha (corn (Zea mays); pre-emergence, Preemergence, 31 g ai/ha, scale 0 to 100 (0 no effect, 100 complete control))
55%: plant injury at 125 g/ha (corn (Zea mays); pre-emergence, Preemergence, 125 g ai/ha, read-out: Plant response rating (scale 0 to 100), Corn)
5%: pest or weed control at 31 g/ha ([7]; post-emergence, Postemergence, scale 0 to 100 (0 no effect, 100 complete control), read-out: Ryegrass, Italian plant response rating) | pest or weed control at 62 g/ha [7, 18] | plant injury at 31 g/ha [8, 21] | plant injury at 16 g/ha (corn (Zea mays); post-emergence, Postemergence, 16 g ai/ha, scale 0 to 100 (0 no effect, 100 complete control), read-out: Corn plant response rating) | plant injury at 31 g/ha (corn (Zea mays); post-emergence, Postemergence, 31 g ai/ha, scale 0 to 100 (0 no effect, 100 complete control), read-out: Corn plant response rating)
80: Ryegrass, Italian plant response rating [1, 14] | Plant response rating, Ragweed [2, 15]
100%: pest or weed control at 31 g/ha [6, 17] | pest or weed control at 62 g/ha [6, 17] | plant injury at 31 g/ha ([9]; post-emergence, Postemergence, scale 0 to 100 (0 no effect, 100 complete control), read-out: Oilseed Rape plant response rating) | plant injury at 62 g/ha [9, 22] | plant injury at 125 g/ha [9, 22] | plant injury at 125 g/ha ([9]; pre-emergence, Preemergence, read-out: Plant response rating (scale 0 to 100), Oilseed Rape) | plant injury at 31 g/ha [9, 23] | plant injury at 62 g/ha [9, 23] | pest or weed control at 125 g/ha ([10]; pre-emergence, Preemergence, read-out: Plant response rating (scale 0 to 100), Velvetleaf) | pest or weed control at 31 g/ha [10, 25] | pest or weed control at 62 g/ha [10, 25] | pest or weed control at 125 g/ha [11, 26] | pest or weed control at 125 g/ha ([11]; pre-emergence, Preemergence, read-out: Plant response rating (scale 0 to 100), Galium) | pest or weed control at 16 g/ha ([11]; pre-emergence, Preemergence, 16 g ai/ha, scale 0 to 100 (0 no effect, 100 complete control), read-out: Plant response rating, Galium) | pest or weed control at 31 g/ha [11, 27] | pest or weed control at 62 g/ha [11, 27]
